Measured values as given in patent publication US8247613B2, “Methods and compositions for the synergistic activation of latent HIV” (The J. David Gladstone Institutes, priority 2006, dated 2012).

Experiments:
[1] = system: latent HIV expression in J-Lat 6.3 cells; assay: HIV-LTR-driven expression of GFP (flow cytometry) in J-Lat 6.3 cells; assay type: cell-based; details: 16 hours; for activation of latent HIV expression (GFP-positive cells): J-Lat 6.3 cells
Protocol: (§1) J-Lat 6.3, J-Lat 8.4 T-cells, and J-Lat 9.2 cells are Jurkat T cell lines containing integrated but transcriptionally latent HIV proviruses. These J-Lat cells contain wild-type Tat and TAR and appear to be highly representative of the latently infected cells present in vivo (Williams et al., 2004, J Biol Chem 279(40):42008-42017).
(§2) J-Lat 6.3 T cells, J-Lat 8.4 T-cells and J-Lat 9.2 T cells were obtained from Jordan et al., (Jordan et al., 2003, EMBO J 22(8):1868-1877). J-Lat cells were cultured in RPMI supplemented with 10% fetal calf serum (FCS) and penicillin/streptomycin and L-glutamine described (Williams et al., 2004, J Biol Chem 279(40):42008-42017; Williams et al., 2006, EMBO J 25:139-149).
(§3) The J-Lat T-cell clones used herein are infected with full-length HIV proviruses and contain the Aequorea victoria green fluorescent protein (GFP) gene in lieu of Net thus permitting epifluorescence monitoring of viral transcriptional activity. Under basal conditions, little or no GFP expression is detected; however, transcriptional activation of the latent provirus leads to GFP expression, which can be detected at the single-cell level by flow cytometry. Flow cytometry analysis and FACS was essentially performed as described (Williams et al., 2004, J Biol Chem 279(40):42008-42017).
(§4) Cells were analyzed for GFP-fluorescence and general viability characteristics on a FACSCalibur flow cytometer (Becton Dickinson). Data were analyzed with FlowJo (Treesoft) flow cytometry analysis software.
(§5) J-Lat 6.3 and 8.4 T-cells cultured in RPMI supplemented with 10% fetal calf serum (FCS) and penicillin/streptomycin were counted and adjusted to 1×10^6 cells/ml. 80 μl aliquots of J-Lat 6.3 and 8.4 T-cells, respectively, were pipetted in a 96-well u-bottomed plate. […] Then HIV-LTR-driven expression of GFP was assessed by flow cytometry using a Beckton Dickenson FACScalibur as described above. […] Cells with greater GFP fluorescence than a non-GFP expressing Jurkat control cells were considered GFP-positive.

[2] = system: latent HIV expression in J-Lat 8.4 T-cells; assay: HIV-LTR-driven expression of GFP (flow cytometry) in J-Lat 8.4 T-cells; assay type: cell-based; details: 16 hours; for activation of latent HIV expression (GFP-positive cells): J-Lat 8.4 T-cells
Protocol: as §1, §2, §3, §4, §5

J-Lat 6.3 cells = assay: Cell viability assay (flow cytometry light scatter), J-Lat 6.3 cells; assay type: cell-based
Protocol: (§6) Following stimulation, cells were cultured for 16 hours at 37° C. 90% humidity, 5% CO2. Cells were then analyzed by flow cytometry for viability.
(§7) Cells were scored as viable if they were detected in a characteristically “live” region of light scatter and defraction as measured by flow cytometry.
(§8) As described herein, it is known in the art that high concentrations of prostratin exert some toxic effects on cells. Thus, using the same experimental set-up as described in Example 2, above, cell viability was determined. Cell viability were quantitated as described above. Using J-Lat 6.3 cells and 8.4 T-cells, it was observed that 2 μM prostratin induced cell death in about 50% of the cells. […] In this experiment, cells were incubated with prostratin for about 20 hours, whereas J-Lat 6.3 cells and 8.4 T-cells (in FIGS. 2A and 2B) were incubated with prostratin for 36 hours.

[3] = concentration of >500 nM for more than 2 days; cited from earlier work
J-Lat 8.4 T-cells = assay: Cell viability assay (flow cytometry light scatter), J-Lat 8.4 T-cells; assay type: cell-based
Protocol: as §6, §7, §8

latent HIV expression = details: more potent than prostratin; cited from earlier work
J-Lat6.3kRed2 cells = assay: Cell viability assay (flow cytometry light scatter), J-Lat6.3kRed2 cells; assay type: cell-based
Protocol: as §6, §7, §8
As described in Example 3 for TSA, the effect of valproic acid on blocking prostratin-induced cell death was analyzed using the same experimental set-up as described in Example 4.

[4] = cited from earlier work
[5] = system: latent HIV expression in J-Lat6.3kRed2 cells; assay type: cell-based
Protocol: In a similar experiment, J-Lat6.3kRed2 cells, a modified cell line derived from J-Lat6.3 containing an integrated kB-DsRed2 reporter, was used. J-Lat6.3kRed2 cells were counted and adjusted to 1×10^6 cells/ml. 80 μl aliquots were pipetted in a 96-well u-bottomed plate. Two-fold serial dilutions of 4, 2, and 1 μM trichostatin A (TSA) were made and added to the cells at final concentrations of 400 nM, 200 nM, and 100 nM, respectively. Three-fold serial dilutions of 100, 33, 11, 3.7 μM prostratin were made and added to cells at final concentrations of 10 μM, 3.3 μM, 1.1 μM, and 0.37 μM (0.4 μM in FIG. 1C), respectively. Samples were mixed by pipetting, returned to a 37° C. incubator with 5% CO2 and 90% humidity for 20 hours, HIV-LTR-driven expression of GFP was assessed by flow cytometry as described above.
In order to test a possible synergistic effect of additional histone deacetylase inhibitors, the effect of valproic acid in combination with prostratin was analyzed. J-Lat6.3kRed2 cells were adjusted to 1×10^6 cells/ml. 80 μl cell aliquots were pipetted in a 96-well u-bottomed plate. […] HIV-LTR-driven expression of GFP was assessed by flow cytometry as described above.

[6] = system: latent HIV expression in J-Lat 6.3 cells; assay: Tat transfection assay, latent HIV-driven GFP expression in J-Lat 6.3 cells; assay type: cell-based; details: for effect on Tat-induced latent HIV-driven expression of GFP: coadministration with Tat (FLAG-Tat transfected cells), 16 hours, J-Lat 6.3 cells (FIG. 5)
Protocol: 10^6 J-Lat 6.3 cells cultured in RPMI+10% fetal calf serum (FCS) and penicillin/streptomycin were pelleted by centrifugation and resuspended in 0.4 mL RPMI without serum. Cell suspension was mixed with 1 μg of pMACS-kk H2kk expression vector DNA (Miltenyi), and 10 μg of pCMV4 (Andersson et al., 1989, J Biol Chem 264 (14):8222-8229), or 10 μg pCMV4-FLAG-Tat expression vector (gift of Eric Verdin), transferred to a 0.4 cm gap electroporation cuvette (Stratagene), and electroporated at 975 μF, […] for ˜25×10^−3 seconds. Electroporated cells were resuspended in 4 mL medium, and returned to cell culture for 48 hours. 90 μl aliquots of each sample were distributed to U-bottomed 96-well plates and 10 μl of 200 ng/mL TNF-α (Biosource), 10 μl of 1 mM Trichostatin A (Biomol), or 10 μl of RPMI. For 30′-pulse TNF-α stimulation experiments, 10 μl of 200 ng/mL TNF-α was added to 90 μl cell suspension for 30 minutes, cells were transferred to a V-bottomed 96 well plate and centrifuged at […] for 3 minutes. Supernatant was removed and replaced, and procedure was repeated 2×. Cells were resuspended in 100 μl fresh RPMI with 10% serum and penicillin/streptomycin. 16 hours after treatment, cells were pelleted by centrifugation, and resuspended in 50 μl PBS+1:100 dilution of streptavidin-conjugated anti-H2kk antibody. Samples were incubated 10 minutes, diluted in 200 μl PBS, pelleted by centrifugation, and supernatant removed. […] Samples were analyzed by flow cytometry using a Beckton Dickinson FACSCalibur. Cells were analyzed using FlowJo (TreeSoft) flow cytometry analysis software. Live cells were identified by characteristic light scatter and defraction and exclusively analyzed. Cells with APC fluorescence greater that untransfected cells stained with biotin-APC were considered to be H2kk-positive, and to have been successfully transfected. […]

[7] = system: latent HIV expression in J-Lat 9.2 cells; assay: Tat transfection assay, latent HIV-driven GFP expression in J-Lat 9.2 cells; assay type: cell-based; details: FLAG-Tat transfected J-Lat 9.2 cells (FIG. 6); result similar to Example 6
[8] = co-administration of 100 nM TSA with 2 μM prostratin

Compound: CC(=O)O[C@@]12C[C@@H](C)[C@@]3(O)[C@@H](C=C(CO)C[C@]4(O)C(=O)C(C)=C[C@@H]34)[C@@H]1C2(C)C [prostratin, 12-deoxyphorbol 13-acetate]
- activation of latent HIV expression (GFP-positive cells) ([1]; prostratin 2 μM alone): induced the activation of latent HIV expression
- activation of latent HIV expression (GFP-positive cells) ([2]; prostratin 2 μM alone): induced the activation of latent HIV expression
- prostratin-induced cell death (cells) (J-Lat 6.3 cells; 2 μM prostratin, incubated 36 hours (FIG. 2A)): about 50%
- toxicity (growth arrest and cell death) [3]: substantial growth arrest and cell death
- prostratin-induced cell death (cells) (J-Lat 8.4 T-cells; 2 μM prostratin, incubated 36 hours (FIG. 2B)): about 50%

Compound: CC1=C[C@H]2[C@@]3(O)[C@H](C)C[C@]4(OC(=O)Cc5ccccc5)C([C@@H]3C=C(CO)C[C@]2(O)C1=O)C4(C)C (stereo partly shown) [DPP, 12-deoxyphorbol 13-phenylacetate]
- potency relative to prostratin (latent HIV expression): 20-40 fold

Compound: CCCC(CCC)C(=O)O [valproic acid, 2-propylpentanoic acid]
- effect on prostratin-induced cell death (J-Lat6.3kRed2 cells; valproic acid at all tested concentrations (0.3-3 mM), prostratin 10 μM, J-Lat6.3kRed2 cells (FIG. 4)): blocked prostratin-induced cell death
- time of peak serum levels ([4]; after a single oral dose): 1 to 4 h
- serum half-life ([4]; in vivo): 6 to 16 h
- absorption after oral administration ([4]; oral): rapidly absorbed
- potentiation of the effect of prostratin on latent HIV expression ([5]; valproic acid 0.3 mM with prostratin 0.37 μM, 18 hours, J-Lat6.3kRed2 cells (FIG. 3)): 6-7 fold

Compound: TNF-α
- expression of latent HIV (GFP) ([6]; 30-minute pulse treatment of TNF-α, without Tat, J-Lat 6.3 cells): weak expression
- effect on Tat-induced latent HIV-driven expression of GFP [6]: strongly enhanced
- activation of expression of latent HIV (GFP) together with Tat [7]: Synergizes with Tat

Compound: CC(/C=C/C(=O)NO)=C\[C@@H](C)C(=O)c1ccc(N(C)C)cc1 [TSA, [R-(E,E)]-7-[4-(Dimethylamino)phenyl]-N-hydroxy-4,6-dimethyl-7-oxo-2,4-heptadienamide]
- activation of latent HIV expression (GFP-positive cells) ([1]; TSA 100 nM administered alone): no significant effect
- potentiation of the effect of prostratin on latent HIV expression ([1]; TSA 100 nM with prostratin 2 μM, J-Lat 6.3 cells (FIG. 1A)): 5-6 fold
- activation of latent HIV expression (GFP-positive cells) ([2]; TSA 100 nM administered alone): no significant effect
- potentiation of the effect of prostratin on latent HIV expression ([2]; TSA 100 nM with prostratin 2 μM, J-Lat 8.4 T-cells (FIG. 1B)): 6-7 fold
- effect on prostratin-induced cell death (J-Lat 6.3 cells; [8]): almost completely inhibited
- effect on Tat-induced latent HIV-driven expression of GFP [6]: strongly enhanced
- effect on prostratin-induced cell death (J-Lat6.3kRed2 cells; TSA with prostratin up to 10 μM, about 20 hours, J-Lat6.3kRed2 cells (FIG. 2C)): inhibited prostratin-induced cell death
- activation of expression of latent HIV (GFP) together with Tat [7]: Synergizes with Tat
- synergistic effect on activation of latent HIV expression ([5]; 370 (400) nM TSA in combination with 0.4 μM prostratin, 20 hours, J-Lat6.3kRed2 cells (FIG. 1C)): about 16 fold
- effect on the activation of latent HIV expression ([5]; TSA 100-400 nM with prostratin 0.37-10 μM, 20 hours, J-Lat6.3kRed2 cells): drastic effect
- effect on prostratin-induced cell death (J-Lat 8.4 T-cells; [8]): almost completely inhibited
